Assay results as given in ChEMBL document CHEMBL4316596, “Antimicrobial Peptides with High Proteolytic Resistance for Combating Gram-Negative Bacteria” (J Med Chem, 2019).

Columns and labels:
Escherichia coli [1] = assay: Antimicrobial activity against Escherichia coli ATCC 25922 after 24 hrs by NCCLS-protocol based assay; format: functional; conditions: ATCC 25922, 24 h
Escherichia coli [2] = assay: Antimicrobial activity against Escherichia coli UB1005 after 24 hrs by NCCLS-protocol based assay; format: functional; conditions: UB1005, 24 h
Escherichia coli [3] = assay: Antimicrobial activity against Escherichia coli 078 after 24 hrs by NCCLS-protocol based assay; format: functional; conditions: Escherichia coli, 078, 24 h
Escherichia coli [4] = assay: Antimicrobial activity against Escherichia coli K88 after 24 hrs by NCCLS-protocol based assay; format: functional; conditions: K88, 24 h
Escherichia coli [5] = assay: Antimicrobial activity against Escherichia coli K99 after 24 hrs by NCCLS-protocol based assay; format: functional; conditions: K99, 24 h
Pseudomonas aeruginosa [6] = assay: Antimicrobial activity against Pseudomonas aeruginosa ATCC 27853 after 24 hrs by NCCLS-protocol based assay; format: functional; conditions: ATCC 27853, 24 h
Pseudomonas aeruginosa [7] = assay: Antimicrobial activity against Pseudomonas aeruginosa PAO1 after 24 hrs by NCCLS-protocol based assay; format: functional; conditions: PAO1, 24 h
Pseudomonas aeruginosa [8] = assay: Antimicrobial activity against Pseudomonas aeruginosa CICC 21630 clinical isolates after 24 hrs by NCCLS-protocol based assay; format: functional; conditions: CICC 21630, 24 h
Pseudomonas aeruginosa [9] = assay: Antimicrobial activity against Pseudomonas aeruginosa 26305 clinical isolates after 24 hrs by NCCLS-protocol based assay; format: functional; conditions: Pseudomonas aeruginosa, 26305, 24 h
Pseudomonas aeruginosa [10] = assay: Antimicrobial activity against Pseudomonas aeruginosa CICC 21625 clinical isolates after 24 hrs by NCCLS-protocol based assay; format: functional; conditions: CICC 21625, 24 h
Pseudomonas aeruginosa [11] = assay: Antimicrobial activity against Pseudomonas aeruginosa 25349 clinical isolates after 24 hrs by NCCLS-protocol based assay; format: functional; conditions: Pseudomonas aeruginosa, 25349, 24 h
Salmonella typhimurium [12] = assay: Antimicrobial activity against Salmonella typhimurium ATCC 14028 after 24 hrs by NCCLS-protocol based assay; format: functional, Salmonella enterica subsp. enterica serovar Typhimurium; conditions: Salmonella enterica, ATCC 14028, 24 h
Salmonella typhimurium [13] = assay: Antimicrobial activity against Salmonella typhimurium C7731 after 24 hrs by NCCLS-protocol based assay; format: functional, Salmonella enterica subsp. enterica serovar Typhimurium; conditions: Salmonella enterica, C7731, 24 h
[14] = Antimicrobial activity against Salmonella pullorum C7913 after 24 hrs by NCCLS-protocol based assay; format: functional, Salmonella enterica subsp. enterica serovar Pullorum; conditions: Salmonella enterica, C7913, 24 h
Acinetobacter baumannii [15] = assay: Antimicrobial activity against Acinetobacter baumannii after 24 hrs by NCCLS-protocol based assay; format: functional
Klebsiella pneumoniae [16] = assay: Antimicrobial activity against Klebsiella pneumoniae after 24 hrs by NCCLS-protocol based assay; format: functional
Escherichia coli [17] = assay: Bactericidal activity against Escherichia coli ATCC 25922 incubated for 4 hrs followed by culture spread on agar plates and cultured overnight; format: functional; conditions: ATCC 25922, 4 h, read-out: MBC>99.9
Escherichia coli [18] = assay: Bactericidal activity against Escherichia coli UB1005 incubated for 4 hrs followed by culture spread on agar plates and cultured overnight; format: functional; conditions: UB1005, 4 h, read-out: MBC>99.9
Escherichia coli [19] = assay: Bactericidal activity against Escherichia coli 078 incubated for 4 hrs followed by culture spread on agar plates and cultured overnight; format: functional; conditions: Escherichia coli, 078, 4 h; read-out: MBC>99.9
Escherichia coli [20] = assay: Bactericidal activity against Escherichia coli K88 incubated for 4 hrs followed by culture spread on agar plates and cultured overnight; format: functional; conditions: K88, 4 h, read-out: MBC>99.9
Escherichia coli [21] = assay: Bactericidal activity against Escherichia coli K99 incubated for 4 hrs followed by culture spread on agar plates and cultured overnight; format: functional; conditions: K99, 4 h, read-out: MBC>99.9
Pseudomonas aeruginosa [22] = assay: Bactericidal activity against Pseudomonas aeruginosa ATCC 27853 incubated for 4 hrs followed by culture spread on agar plates and cultured overnight; format: functional; conditions: ATCC 27853, 4 h, read-out: MBC>99.9
Pseudomonas aeruginosa [23] = assay: Bactericidal activity against Pseudomonas aeruginosa PAO1 incubated for 4 hrs followed by culture spread on agar plates and cultured overnight; format: functional; conditions: PAO1, 4 h, read-out: MBC>99.9
Pseudomonas aeruginosa [24] = assay: Bactericidal activity against Pseudomonas aeruginosa CICC 21630 clinical isolates incubated for 4 hrs followed by culture spread on agar plates and cultured overnight; format: functional; conditions: CICC 21630, 4 h, read-out: MBC>99.9
Pseudomonas aeruginosa [25] = assay: Bactericidal activity against Pseudomonas aeruginosa 26305 clinical isolates incubated for 4 hrs followed by culture spread on agar plates and cultured overnight; format: functional; conditions: Pseudomonas aeruginosa, 26305, 4 h; read-out: MBC>99.9
Pseudomonas aeruginosa [26] = assay: Bactericidal activity against Pseudomonas aeruginosa CICC 21625 clinical isolates incubated for 4 hrs followed by culture spread on agar plates and cultured overnight; format: functional; conditions: CICC 21625, 4 h, read-out: MBC>99.9
Pseudomonas aeruginosa [27] = assay: Bactericidal activity against Pseudomonas aeruginosa 25349 clinical isolates incubated for 4 hrs followed by culture spread on agar plates and cultured overnight; format: functional; conditions: Pseudomonas aeruginosa, 25349, 4 h; read-out: MBC>99.9
Salmonella typhimurium [28] = assay: Bactericidal activity against Salmonella typhimurium ATCC 14028 incubated for 4 hrs followed by culture spread on agar plates and cultured overnight; format: functional, Salmonella enterica subsp. enterica serovar Typhimurium; conditions: Salmonella enterica, ATCC 14028, 4 h; read-out: MBC>99.9
Salmonella typhimurium [29] = assay: Bactericidal activity against Salmonella typhimurium C7731 incubated for 4 hrs followed by culture spread on agar plates and cultured overnight; format: functional, Salmonella enterica subsp. enterica serovar Typhimurium; conditions: Salmonella enterica, C7731, 4 h; read-out: MBC>99.9
[30] = Bactericidal activity against Salmonella pullorum C7913 incubated for 4 hrs followed by culture spread on agar plates and cultured overnight; format: functional, Salmonella enterica subsp. enterica serovar Pullorum; conditions: Salmonella enterica, C7913, 4 h; read-out: MBC>99.9
Acinetobacter baumannii [31] = assay: Bactericidal activity against Acinetobacter baumannii incubated for 4 hrs followed by culture spread on agar plates and cultured overnight; format: functional; conditions: read-out: MBC>99.9
Klebsiella pneumoniae [32] = assay: Bactericidal activity against Klebsiella pneumoniae incubated for 4 hrs followed by culture spread on agar plates and cultured overnight; format: functional; conditions: read-out: MBC>99.9

Row | Substance | MIC95 (Escherichia coli [1]) | MIC95 (Escherichia coli [2]) | MIC95 (Escherichia coli [3]) | MIC95 (Escherichia coli [4]) | MIC95 (Escherichia coli [5]) | MIC95 (Pseudomonas aeruginosa [6]) | MIC95 (Pseudomonas aeruginosa [7]) | MIC95 (Pseudomonas aeruginosa [8]) | MIC95 (Pseudomonas aeruginosa [9]) | MIC95 (Pseudomonas aeruginosa [10]) | MIC95 (Pseudomonas aeruginosa [11]) | MIC95 (Salmonella typhimurium [12]) | MIC95 (Salmonella typhimurium [13]) | MIC95 [14] | MIC95 (Acinetobacter baumannii [15]) | MIC95 (Klebsiella pneumoniae [16]) | MBC (Escherichia coli [17]) | MBC (Escherichia coli [18]) | MBC (Escherichia coli [19]) | MBC (Escherichia coli [20]) | other results
1 | H-VRPVVRPVVRPVVRPVVRPVVRPVVRPV-NH2 | 8 µM | 8 µM | 8 µM | 8 µM | 16 µM | > 64 µM | > 64 µM | > 64 µM | > 64 µM | > 64 µM | > 64 µM | 8 µM | 16 µM | 4 µM | 4 µM | 32 µM | 16 µM | 8 µM | 16 µM | 32 µM | MBC (Escherichia coli [21]): 32 µM; MBC (Pseudomonas aeruginosa [22]): > 64 µM; MBC (Pseudomonas aeruginosa [23]): > 64 µM; MBC (Pseudomonas aeruginosa [24]): > 64 µM; MBC (Pseudomonas aeruginosa [25]): > 64 µM; MBC (Pseudomonas aeruginosa [26]): > 64 µM; MBC (Pseudomonas aeruginosa [27]): > 64 µM; MBC (Salmonella typhimurium [28]): 16 µM; MBC (Salmonella typhimurium [29]): 32 µM; MBC [30]: 8 µM; MBC (Acinetobacter baumannii [31]): 4 µM; MBC (Klebsiella pneumoniae [32]): 64 µM
2 | H-VRPVVRPVVRPVVRPVVRPVVRPV-NH2 | 64 µM | 32 µM | 64 µM | 8 µM | 16 µM | > 64 µM | > 64 µM | > 64 µM | > 64 µM | > 64 µM | > 64 µM | 16 µM | 32 µM | 8 µM | 4 µM | > 64 µM | > 64 µM | 32 µM | > 64 µM | 8 µM | MBC (Escherichia coli [21]): 16 µM; MBC (Pseudomonas aeruginosa [22]): > 64 µM; MBC (Pseudomonas aeruginosa [23]): > 64 µM; MBC (Pseudomonas aeruginosa [24]): > 64 µM; MBC (Pseudomonas aeruginosa [25]): > 64 µM; MBC (Pseudomonas aeruginosa [26]): > 64 µM; MBC (Pseudomonas aeruginosa [27]): > 64 µM; MBC (Salmonella typhimurium [28]): 32 µM; MBC (Salmonella typhimurium [29]): 32 µM; MBC [30]: 16 µM; MBC (Acinetobacter baumannii [31]): 4 µM; MBC (Klebsiella pneumoniae [32]): > 64 µM
3 | H-IRPIIRPIIRPIIRPI-NH2 | 16 µM | 16 µM | 16 µM | 4 µM | 8 µM | > 64 µM | > 64 µM | > 64 µM | > 64 µM | > 64 µM | > 64 µM | 16 µM | 16 µM | 16 µM | 8 µM | 32 µM | 32 µM | 16 µM | 32 µM | 8 µM | MBC (Escherichia coli [21]): 16 µM; MBC (Pseudomonas aeruginosa [22]): > 64 µM; MBC (Pseudomonas aeruginosa [23]): > 64 µM; MBC (Pseudomonas aeruginosa [24]): > 64 µM; MBC (Pseudomonas aeruginosa [25]): > 64 µM; MBC (Pseudomonas aeruginosa [26]): > 64 µM; MBC (Pseudomonas aeruginosa [27]): > 64 µM; MBC (Salmonella typhimurium [28]): 16 µM; MBC (Salmonella typhimurium [29]): 32 µM; MBC [30]: 16 µM; MBC (Acinetobacter baumannii [31]): 8 µM; MBC (Klebsiella pneumoniae [32]): 32 µM
4 | H-IKPIIKPIIKPIIKPIIKPIIKPIIKPIIKPI-NH2 | 16 µM | 4 µM | 32 µM | 1 µM | 2 µM | > 64 µM | > 64 µM | > 64 µM | > 64 µM | > 64 µM | > 64 µM | > 64 µM | > 64 µM | > 64 µM | 4 µM | 64 µM | 16 µM | 4 µM | > 64 µM | 2 µM | MBC (Escherichia coli [21]): 4 µM; MBC (Pseudomonas aeruginosa [22]): > 64 µM; MBC (Pseudomonas aeruginosa [23]): > 64 µM; MBC (Pseudomonas aeruginosa [24]): > 64 µM; MBC (Pseudomonas aeruginosa [25]): > 64 µM; MBC (Pseudomonas aeruginosa [26]): > 64 µM; MBC (Pseudomonas aeruginosa [27]): > 64 µM; MBC (Salmonella typhimurium [28]): > 64 µM; MBC (Salmonella typhimurium [29]): > 64 µM; MBC [30]: > 64 µM; MBC (Acinetobacter baumannii [31]): 4 µM; MBC (Klebsiella pneumoniae [32]): > 64 µM
5 | H-IRPIIRPIIRPIIRPIIRPIIRPIIRPIIRPI-NH2 | 2 µM | 2 µM | 2 µM | 2 µM | 1 µM | 8 µM | 4 µM | > 64 µM | > 64 µM | > 64 µM | > 64 µM | 8 µM | 64 µM | 4 µM | 2 µM | 4 µM | 2 µM | 2 µM | 2 µM | 2 µM | MBC (Escherichia coli [21]): 2 µM; MBC (Pseudomonas aeruginosa [22]): 8 µM; MBC (Pseudomonas aeruginosa [23]): 4 µM; MBC (Pseudomonas aeruginosa [24]): > 64 µM; MBC (Pseudomonas aeruginosa [25]): > 64 µM; MBC (Pseudomonas aeruginosa [26]): > 64 µM; MBC (Pseudomonas aeruginosa [27]): > 64 µM; MBC (Salmonella typhimurium [28]): 16 µM; MBC (Salmonella typhimurium [29]): > 64 µM; MBC [30]: 4 µM; MBC (Acinetobacter baumannii [31]): 4 µM; MBC (Klebsiella pneumoniae [32]): 8 µM
